*1 amine or outer side, *2 acyl side, *3 side chain or, on linkers, in order; H or OH if unused. Where a SMILES comes first, the peptide text is derived from it. Bridges are numbered along the chain shown (N, C = ends). Side-chain parts run from the residue outwards. [ ]: non-standard residue; d: D form. The star is where a group is joined. X32 = O=C(O)CCCCCCCCCCCCCCCCC(=O)N[C@@H](CCC(=O)NCCOCCOCCOCCOCCOCCOCCOCCOCCOCCOCCOCCCOCCC(=O)*)C(=O)O; PEG12 = NCCOCCOCCOCCOCCOCCOCCOCCOCCOCCOCCOCCOCCC(=O)O; Trp(7-Me,2,3-dihydro) = Cc1cccc2c1NCC2C[C@H](N)C(=O)O; Trp(7-Me) = Cc1cccc2c(C[C@H](N)C(=O)O)c[nH]c12; C20 diacid = O=C(O)CCCCCCCCCCCCCCCCCCC(=O)*; C18 diacid = O=C(O)CCCCCCCCCCCCCCCCC(=O)*; X6 = CN(CC[C@H](N[*:1])C(=O)[*:2])[*:3]; Phe(4-Me) = Cc1ccc(C[C@H](N)C(=O)O)cc1; γGlu = O=C(O)[C@H](CCC(=O)[*:2])N[*:1]; 2Nal = N[C@@H](Cc1ccc2ccccc2c1)C(=O)O; AEF = NCCOc1ccc(C[C@H](N)C(=O)O)cc1; X2 = C[N+](C)(C)C[C@@H](CC(=O)O)N*; 3Pal = N[C@@H](Cc1cccnc1)C(=O)O; Pen = CC(C)(S)[C@H](N)C(=O)O; Suc = O=C(CCC(=O)[*:2])[*:1]; Thp = NC1(C(=O)O)CCOCC1; AEEA = NCCOCCOCC(=O)O; Sar = CNCC(=O)O
Tests used:
[1] = tested on: IL-23-stimulated phosphorylated STAT3 in peripheral blood mononuclear cells (PBMCs); experiment: PBMC pSTAT3 Assay; format: cell-based; conditions: PBMCs from healthy donors; 30 min preincubation with peptide; IL-23 5 ng/mL for 30 min; phospho-STAT3 by MSD
Experimental: Cryopreserved peripheral blood mononuclear cells (PBMCs) from healthy donors were thawed and washed twice in ImmunoCult-XF T cell expansion medium (XF-TCEM) supplemented with CTL anti-aggregate wash. The cells were counted, resuspended at 2-6×10^5 cells per mL XF-TCEM supplemented with penicillin/streptomycin and 100 ng/mL […] (BioLegend, 579404), and cultured in tissue culture flasks coated with anti-CD3 (eBioscience, 16-0037-85 or BD Pharmingen, 555329) at 37° C. in 5% CO2. On day 4 of culture, PBMCs were collected, washed twice in RPMI-1640 supplemented with 0.1% BSA (RPMI-BSA), and incubated in RPMI-BSA in upright tissue culture flasks for ~4 hours at 37° C. in 5% CO2. Following this 'starvation,' a total of 6×10^4 cells in 30 μL RPMI-BSA was transferred into each well of a 384-well plate pre-spotted with peptide or DMSO. The cells were incubated for 30 minutes prior to the addition of […] at a final concentration of 5 ng/mL. The cells were stimulated with cytokine for 30 minutes at 37° C. in 5% CO2, transferred onto ice for 10 minutes, and lysed. Cell lysates were stored at -80° C. until phosphorylated STAT3 was measured using the phospho-STAT panel kit (Meso Scale Discovery, […]). Results are provided below. • A: IC50<0.5 nM; • B: 0.5 nM≤IC50<5 nM; • C: 5 nM≤IC50; • ND: Not determined

IL-23R = biological target: T1, IL-23R (Homo sapiens, UniProt Q5VWK5); experiment: IL23R Reporter Assay; format: cell-based; conditions: HEK293 cells containing IL-23R, IL-12Rβ1 and STAT-inducible firefly luciferase reporter; 10 ng/mL IL-23 (EC90); 5 h
T1 construct: HEK293 cells containing IL-23R, IL-12Rβ1 and a firefly luciferase reporter gene driven by a STAT-inducible promoter (Promega); host or cells: HEK293
T1 sequence (Q5VWK5 24-629): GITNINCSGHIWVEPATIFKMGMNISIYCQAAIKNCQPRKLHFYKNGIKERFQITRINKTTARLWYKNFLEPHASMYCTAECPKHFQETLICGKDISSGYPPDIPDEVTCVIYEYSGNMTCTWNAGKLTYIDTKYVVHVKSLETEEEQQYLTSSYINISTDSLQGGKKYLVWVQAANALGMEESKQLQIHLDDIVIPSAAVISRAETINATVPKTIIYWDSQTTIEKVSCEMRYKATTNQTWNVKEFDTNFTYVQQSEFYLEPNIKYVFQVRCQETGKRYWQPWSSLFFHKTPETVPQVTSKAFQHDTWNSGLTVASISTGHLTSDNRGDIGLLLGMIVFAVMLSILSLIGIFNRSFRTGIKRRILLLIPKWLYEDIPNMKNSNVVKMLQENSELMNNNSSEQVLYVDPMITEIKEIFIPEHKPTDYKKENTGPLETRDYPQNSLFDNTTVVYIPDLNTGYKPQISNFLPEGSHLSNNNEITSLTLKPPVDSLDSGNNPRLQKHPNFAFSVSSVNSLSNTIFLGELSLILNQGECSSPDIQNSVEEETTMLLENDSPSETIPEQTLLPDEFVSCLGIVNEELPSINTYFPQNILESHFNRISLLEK
In short: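 IC50 values were fitted with a 4-parameter Hill equation to luciferase signal, scaled between IL-23-only wells (0% inhibition) and 30 μM reference inhibitor (100%). The readout was a STAT-inducible reporter in IL-23R/IL-12Rβ1 HEK293 cells, stimulated with added 10 ng/mL IL-23 (EC90) for 5 h at 37° C and developed with BioGlo.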

| SMILES | IC50 [1] [nM] | IC50 (IL-23R) [nM] |
| --- | --- | --- |
| CC(=O)NCCCC[C@@H]1NC(=O)[C@H](Cc2c[nH]c3c(C)cccc23)NC(=O)[C@H]([C@@H](C)O)NC(=O)[C@H](CC(N)=O)NC(=O)[C@@H](NC(=O)C(CCCNC(=N)N)CC(=O)COCCOCCNC(=O)COCCOCCNC(=O)CC[C@H](NC(=O)CCCCCCCCCCCCCCCCC(=O)O)C(=O)O)C(C)(C)SSC(C)(C)[C@@H](C(=O)N[C@@H](Cc2ccc(OCCN)cc2)C(=O)N[C@@H](Cc2ccc3ccccc3c2)C(=O)NC2(C(=O)N[C@@H](CCC(=O)O)C(=O)N[C@@H](CC(N)=O)C(=O)N[C@@H](Cc3cccnc3)C(=O)N(C)[C@@H](CCCCNC(=O)CCC(=O)N[C@H](CC(=O)O)C[N+](C)(C)C)C(N)=O)CCOCC2)NC1=O (some centres unmarked) [compound 43, HOC18gEPEG2PEG2CO-r-Pen(3)-N-T-7MeW-K(Ac)-Pen(3)-AEF-2Nal-THP-E-N-3Pya-NMeK(d)-CONH2] | < 0.5 | < 50 |
| CC(=O)NCCCC[C@@H]1NC(=O)[C@H](CC2CNc3c(C)cccc32)NC(=O)[C@H]([C@@H](C)O)NC(=O)[C@H](CC(N)=O)NC(=O)[C@@H](NC(C)=O)C(C)(C)SSC(C)(C)[C@@H](C(=O)N[C@@H](Cc2ccc(C)cc2)C(=O)N[C@@H](Cc2ccc3ccccc3c2)C(=O)NC2(C(=O)N[C@@H](CCCCNC(=O)CCOCCOCCOCCOCCOCCOCCOCCOCCOCCOCCOCCOCCNC(=O)CC[C@H](NC(=O)CCCCCCCCCCCCCCCCCCC(=O)O)C(=O)O)C(=O)N[C@@H](CC(N)=O)C(=O)N[C@@H](Cc3cccnc3)C(=O)N(C)CC(N)=O)CCOCC2)NC1=O (stereo partly drawn) [compound 162, MeCO-Pen(3)-N-T-7MeW-K(Ac)-Pen(3)-AEF-2Nal-THP-K(PEG12gEC20OH)-N-3Pya-Sar-CONH2] (Ac-[Pen]NT[Trp(7-Me,2,3-dihydro)]K(Ac)[Pen][Phe(4-Me)][2Nal][Thp]K([PEG12-γGlu-C20 diacid])N[3Pal][Sar]-NH2; disulfide 1-6) | < 0.5 | 50 to 500 |
| Cc1cccc2c(C[C@@H]3NC(=O)[C@H]([C@@H](C)O)NC(=O)[C@H](CC(=O)N(C)C)NC(=O)[C@@H](NC(=O)COCCOCCNC(=O)COCCOCCNC(=O)CC[C@H](NC(=O)CCCCCCCCCCCCCCCCC(=O)O)C(=O)O)C(C)(C)SSC[C@@H](C(=O)N[C@@H](Cc4ccc(OCCN)cc4)C(=O)N[C@@H](Cc4ccc5ccccc5c4)C(=O)NC4(C(=O)N[C@@H](CCN(C)C(=O)CCC(=O)N[C@H](CC(=O)O)C[N+](C)(C)C)C(=O)N[C@@H](CC(N)=O)C(=O)N[C@@H](Cc5cccnc5)C(=O)N(C)CC(=O)N(C)C)CCOCC4)NC(=O)[C@H](CCN(C)C(=O)CCC(=O)N[C@H](CC(=O)O)C[N+](C)(C)C)NC3=O)c[nH]c12 [compound 138, HOC18gEPEG2PEG2CO-Pen(3)-N(N(Me)2)-T-7MeW-Dab(NMecarn)-Pen(3)-AEF-2Nal-THP-Dab(NMecarn)-N-3Pya-Sar-CON(Me)2] ({C18 diacid-γGlu-AEEA-AEEA}-[Pen]D(NMe2)T[Trp(7-Me)][X6]([Suc-X2])C[AEF][2Nal][Thp][X6]([Suc-X2])N[3Pal][Sar]-NMe2; disulfide 1-6) | < 0.5 | < 50 |
| CC(=O)NCCCC[C@@H]1NC(=O)[C@H](Cc2c[nH]c3c(C)cccc23)NC(=O)[C@H]([C@@H](C)O)NC(=O)[C@H](CC(N)=O)NC(=O)[C@@H](NC(=O)[C@@H](CCCNC(=N)N)NC(C)=O)C(C)(C)SSC(C)(C)[C@@H](C(=O)N[C@@H](Cc2ccc(OCCN)cc2)C(=O)N[C@@H](Cc2ccc3ccccc3c2)C(=O)NC2(C(=O)N[C@@H](CCC(=O)O)C(=O)N[C@@H](CC(N)=O)C(=O)N[C@@H](Cc3cccnc3)C(=O)N(C)CC(=O)N[C@@H](CCCCNC(=O)CCOCCCOCCOCCOCCOCCOCCOCCOCCOCCOCCOCCOCCNC(=O)CC[C@H](NC(=O)CCCCCCCCCCCCCCCCC(=O)O)C(=O)O)C(N)=O)CCOCC2)NC1=O [compound 133, MeCO-r-Pen(3)-N-T-7MeW-K(Ac)-Pen(3)-AEF-2Nal-THP-E-N-3Pya-Sar-K(PEG12gEC18OH)-CONH2] (Ac-[dR][Pen]NT[Trp(7-Me)]K(Ac)[Pen][AEF][2Nal][Thp]EN[3Pal][Sar]K(X32)-NH2; disulfide 2-7) | < 0.5 | < 50 |

From patent US20260250320A1, “LIPIDATED PEPTIDE INHIBITORS OF INTERLEUKIN-23 RECEPTOR” (Janssen Pharmaceutica NV, priority 2023, published 2026)
